Results published in US11053207B2, “Indoleamine-2,3-dioxygenase inhibitor and preparation method therefor” (SHANGHAI INSTITUTE OF ORGANIC CHEMISTRY, CHINESE ACADEMY OF …, priority 2014, dated 2021).

Columns and labels:
Hela cells = assay: Test for cell activity (Hela cells, interferon γ, kynurenine read at 480 nm); type: cell-based; conditions: human interferon γ 50 ng/mL, 48 h
Description: Hela cells (100 μL) were inoculated on a 96-well plate at an inoculation amount of 5×10^3 per well and grown overnight. The next day, after the compound was diluted, 1 μL was added to a 96-well plate and then 100 μL of medium containing human interferon y (final concentration of 50 ng/mL) was added to the 96-well plate to allow the final volume to be 200 μL. 48 h after incubating, 140 μL of supernatant in each well was transferred to a new 96-well plate. 10 μL of 6.1 N trichloroacetic acid was added to each well and mixed and incubated at 50° C. for 30 min, IDO catalyzed N-formyl canine urea to become canine urea. The reaction mixture was centrifuged at 2500 rpm for 10 minutes to remove the precipitate. 100 μL of supernatant in each well was transferred to a new 96-well plate and mixed with 100 μL of 2% dimethylaminobenzaldehyde acetic acid solution. After the canine urea was separated, the value was measured at 480 nm using a SPECTRAmax i3 reader.

IDO enzyme = IDO enzyme (Homo sapiens (Human), UniProt P14902); assay: IDO enzyme inhibitory activity; type: biochemical; conditions: OD321 nm, 60 min
Description: Firstly, the IDO gene was amplified by PCR, the PCR amplification products were recovered, and then the pET28a plasmid (purchased from Shanghai Baoman Biotechnology Co., Ltd.) and the IDO gel recovery products were digested with EcoR I and Xho I restriction endonucleases (37° C., digestion for 2 h), electrophorized and recovered. The recovered products were ligated overnight by a T4 ligase and then the ligation products were added to DH5α competent cells, placed on ice for 30 min, heat-shocked at 42° C. for 90 s, cultured on a shaker, and seeded to a plate. Monoclonies were picked, identified by PCR and then by sequencing.
The constructed BL21 containing the pET28a-IDO plasmid was cultured at 37° C. to OD600=0.6-0.8, and a final concentration of 7 μM of chlorine methemoglobin and 1 mM of IPTG (isopropyl-β-D-thiogalactoside) were added for induction at 28° C. for 4 h; after the induction, the cell was centrifuged at 6000 rpm at 4° C., the collected cells were washed once with 20 mM PBS (pH6.5), and centrifuged and collected again.
The collected cells were resuspended with a lysis solution (20 mM PBS pH 6.5), ultrasonically lysed (40% of power, lysis for 20 min, placed on ice), the lysed bacteria were centrifuged at 13000 rpm for 15 min, precipitate was discarded and the supernatant was maintained; the nickel column was equilibrated with the lysis solution (20 mM PBS pH 6.5) for 3 column volumes, and then the lysis supernatant was loaded onto the nickel column; after loading, four column volumes of a rinsing solution (20 mM PBS pH 6.5, 20 mM imidazole) were used for washing, and finally protein was eluted with eluent (20 mM PBS pH 6.5, 250 mM imidazole); the eluted protein solution was dialyzed for 4 h, and the dialysis solution was 20 mM PBS, pH 6.5. After the dialysis, the protein sample was concentrated, packed, flash frozen by liquid nitrogen, and stored at −80° C. for further use.
Firstly, the compound was subject to a 3-fold gradient dilution. 1 μL of each concentration was added to a 96-well plate; 50 μL of the IDO enzyme solution (final concentration 600 ng/100μL) was added: 25 μL of substrate 1 mixture solution was added, 25 μL of substrate 2 mixture solution was added to initiate the reaction. Finally, the plate was read at OD321 nm, 60 min.

Sequence of IDO enzyme (P14902 whole entry): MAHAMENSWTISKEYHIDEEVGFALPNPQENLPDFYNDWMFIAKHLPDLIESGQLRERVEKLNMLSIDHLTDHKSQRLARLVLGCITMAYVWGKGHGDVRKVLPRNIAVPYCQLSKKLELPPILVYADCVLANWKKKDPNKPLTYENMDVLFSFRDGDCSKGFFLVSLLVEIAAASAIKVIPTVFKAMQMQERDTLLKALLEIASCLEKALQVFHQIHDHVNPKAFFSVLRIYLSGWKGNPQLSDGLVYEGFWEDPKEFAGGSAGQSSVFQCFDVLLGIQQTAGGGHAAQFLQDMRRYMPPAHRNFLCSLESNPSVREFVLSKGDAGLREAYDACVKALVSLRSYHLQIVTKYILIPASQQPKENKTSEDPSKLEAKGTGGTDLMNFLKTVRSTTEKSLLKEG

Question: How did the IC50 (Hela cells) turn out when CS(=N)(=O)CCNc1nonc1/C(=N/O)Nc1ccc(F)c(Br)c1 (racemic) [compound 1, (±) (Z)—N-(3-bromo-4-fluorophenyl)-N′-hydroxy-4-((2-(thio-methylsulfoxideimine)ethyl)amino)-1,2,5-oxadiazole-3-carboxamidine] was run?
Answer: 40 nM

Question: And the IC50 (IDO enzyme)?
Answer: 22 nM

Question: What does the source list for CS(=N)(=O)CCCNc1nonc1/C(=N/O)Nc1ccc(F)c(Br)c1 (racemic) [compound 2, (±)(Z)—N-(3-bromo-4-fluorophenyl)-N′-hydroxy-4-((3-(thio-methylsulfoxideimine)propyl)amino)-1,2,5-oxadiazole-3-carboxamidine]?
Answer: IC50 (Hela cells): < 100 nM; IC50 (IDO enzyme): < 3000 nM

Question: Which IC50 (Hela cells) does the source give for CS(=N)(=O)CCCCNc1nonc1/C(=N/O)Nc1ccc(F)c(Br)c1 (racemic) [compound 3, (±)(Z)—N-(3-bromo-4-fluorophenyl)-N′-hydroxy-4-((4-(thio-methylsulfoxideimine)butyl)amino)-1,2,5-oxadiazole-3-carboxamidine] here?
Answer: 8 nM

Question: And the IC50 (IDO enzyme)?
Answer: 74 nM

Question: Which results are given for CS(=N)(=O)CCCCNc1nonc1/C(=N/O)Nc1ccc(F)c(C(F)(F)F)c1 (racemic) [compound 4, (±)(Z)—N-(4-fluoro-3-(trifluoromethyl)phenyl)-N′-hydroxy-4-((4-(thio-methylsulfoxideimine)butyl)amino)-1,2,5-oxadiazole-3-carboxamidine]?
Answer: IC50 (Hela cells): < 500 nM; IC50 (IDO enzyme): < 19000 nM

Question: For CS(=N)(=O)CCCCNc1nonc1/C(=N/O)Nc1cccc(C(F)(F)F)c1 (racemic) [compound 5, (±)(Z)—N′-hydroxy-4-((4-(thio-methylsulfoxideimine)butyl)amino)-N-(3-(trifluoromethyl)phenyl)-1,2,5-oxadiazole-3-carboxamidine], which IC50 (Hela cells) is on record?
Answer: < 76 nM

Question: And the IC50 (IDO enzyme)?
Answer: < 3600 nM

Question: How did the IC50 (Hela cells) turn out when N=S(=O)(CCNc1nonc1/C(=N/O)Nc1ccc(F)c(Br)c1)c1ccccc1 (racemic) [compound 7, (±) (Z)—N-(3-bromo-4-fluorophenyl)-N′-hydroxy-4-((2-(thio-phenylsulfoxideimine)ethyl)amino)-1,2,5-oxadiazole-3-carboxamidine] was run?
Answer: < 260 nM

Question: What about the IC50 (IDO enzyme) of the same compound?
Answer: < 2600 nM

Question: How did the IC50 (Hela cells) turn out when CS(=N)(=O)CCCNc1nonc1/C(=N/O)Nc1cccc(S(F)(F)(F)(F)F)c1 (racemic) [compound 8] was run?
Answer: < 800 nM

Question: And the IC50 (IDO enzyme)?
Answer: < 14000 nM

Question: How did the IC50 (Hela cells) turn out when CS(=O)(CCCNc1nonc1/C(=N/O)Nc1ccc(F)c(Br)c1)=NC#N (racemic) [compound 9, (±) (Z)—N-(3-bromo-4-fluorophenyl)-N′-hydroxy-4-((3-(thio-methylsulfoxidecyanoamine)propyl)amino)-1,2,5-oxadiazole-3-carboxamidine] was run?
Answer: 4.7 nM

Question: And the IC50 (IDO enzyme)?
Answer: 35 nM

Question: Which results are given for CS(=O)(CCCNc1nonc1/C(=N/O)Nc1ccc(F)c(Cl)c1)=NC#N (racemic) [compound 10, (±) (Z)—N-(3-chloro-4-fluorophenyl)-N′-hydroxy-4-((3-(thio-methylsulfoxidecyanoamine)propyl)amino)-1,2,5-oxadiazole-3-carboxamidine]?
Answer: IC50 (Hela cells): 2.8 nM; IC50 (IDO enzyme): < 5000 nM

Question: How did the IC50 (Hela cells) turn out when CS(=O)(CCCCNc1nonc1/C(=N/O)Nc1ccc(F)c(Br)c1)=NC#N (racemic) [compound 11, (±) (Z)—N-(3-bromo-4-fluorophenyl)-N′-hydroxy-4-((4-(thio-methylsulfoxidecyanoamine)butyl)amino)-1,2,5-oxadiazole-3-carboxamidine] was run?
Answer: 7.6 nM

Question: And the IC50 (IDO enzyme)?
Answer: 55 nM

Question: What does the source list for CS(=O)(CCCCNc1nonc1/C(=N/O)Nc1ccc(F)c(Cl)c1)=NC#N (racemic) [compound 12, (±)(Z)—N-(3-chloro-4-fluorophenyl)-N′-hydroxy-4-((4-(thio-methylsulfoxidecyanoamine)butyl)amino)-1,2,5-oxadiazole-3-carboxamidine]?
Answer: IC50 (Hela cells): 2.8 nM; IC50 (IDO enzyme): < 18000 nM

Question: CCC(C)(C)C(=O)O/N=C(\Nc1ccc(F)c(Br)c1)c1nonc1NCCS(C)(=O)=NC#N (racemic) [compound 13, (±) (Z)—N-(3-bromo-4-fluorophenyl)-N′-hydroxy(thio-methylsulfoxidecyanoamine)ethyl)amino)-1,2,5-oxadiazole-3-(2,2-dimethyl) butyrate] was tested. Which IC50 (Hela cells) did it give?
Answer: 14 nM

Question: And the IC50 (IDO enzyme)?
Answer: 180 nM

Question: Which results are given for CC(C)C(=O)O/N=C(\Nc1ccc(F)c(Br)c1)c1nonc1NCCS(C)(=O)=NC#N (racemic) [compound 14, (±)(Z)—N-(3-Br-4-fluorophenyl)-N′-hydroxy-4-((2-(thio-methylsulfoxidecyanoamine)ethyl)amino)-1,2,5-oxadiazole-3-isobutyrate]?
Answer: IC50 (Hela cells): 2.2 nM; IC50 (IDO enzyme): 120 nM

Question: With CC(C)(C)C(=O)O/N=C(\Nc1ccc(F)c(Br)c1)c1nonc1NCCS(C)(=O)=NC#N (racemic) [compound 15, (±)(Z)—N-(3-bromo-4-fluorophenyl)-N′-hydroxy-4-((2-(thio-methylsulfoxidecyanoamine)ethyl)amino)-1,2,5-oxadiazole-3-trimethyl acetate] as the compound, how does the IC50 (Hela cells) read?
Answer: 47 nM

Question: And the IC50 (IDO enzyme)?
Answer: 360 nM

Question: CS(=O)(CCNc1nonc1/C(=N/O)Nc1ccc(F)c(Br)c1)=NC#N (single isomer, unassigned) [compound 6A] was tested. Which IC50 (Hela cells) did it give?
Answer: 0.3 nM

Question: What about the IC50 (IDO enzyme) of the same compound?
Answer: < 88 nM

Question: CS(=O)(CCNc1nonc1/C(=N/O)Nc1ccc(F)c(Br)c1)=NC#N (single isomer, unassigned) [compound 6B] was tested. Which IC50 (Hela cells) did it give?
Answer: 0.6 nM

Question: And the IC50 (IDO enzyme)?
Answer: < 82 nM

Question: How did the IC50 (Hela cells) turn out when c1ccc(-c2cnc[nH]2)cc1 [5-phenyl-1-imidazole, reference compound] was run?
Answer: > 50000 nM

Question: C[S@@](=N)(=O)CCNc1nonc1/C(=N/O)Nc1ccc(F)c(Br)c1 [compound 1A] was tested. Which IC50 (Hela cells) did it give?
Answer: < 70 nM

Question: And the IC50 (IDO enzyme)?
Answer: < 5600 nM

Question: For C[S@](=N)(=O)CCNc1nonc1/C(=N/O)Nc1ccc(F)c(Br)c1 [compound 1B], which IC50 (Hela cells) is on record?
Answer: < 80 nM

Question: And the IC50 (IDO enzyme)?
Answer: < 5200 nM
